Tested on: atherosclerotic lesions on thoracic and abdominal aorta
Experiment: Atherosclerotic lesions in rabbits fed a hypercholesterolemic diet
Type: in vivo, New Zealand rabbits
Conditions: hypercholesterolemic diet (0.2% w/w cholesterol), substance in diet, 8 week-treatment, aorta stained with Sudan IV
Text: The complexes of the invention dose-dependently prevent or reduce the formation of, atherosclerotic plaques. The activity was evidenced in rabbits fed with a hypercholesterolemic diet so as to induce atherosclerotic lesions similar to the human ones at the vasal level, particularly at the aortal arch, ventral aorta, carotids and cerebral vessels. In said model, the above mentioned phospholipid complexes change the macro- and microscopical vascular condition reducing, compared with untreated animals, both the number and the severity of the atheromatous plagues, with surprising vascular-tissutal benefit.
32 New Zealand rabbits were divided in 4 groups of 8 animals each, and treated as follows:
Group 1): Control, normal diet
Group 2): Hypercholesterolemic diet (0.2% w/w cholesterol)
Group 3): Hypercholesterolemic diet+phospholipid complex of proanthocyanidin A2 extract (0.2% cholesterol+2% w/w complex of Example 1).
Group 4): Hypercholesterolemic diet+proanthocyanidin A2 extract (0.2% cholesterol+amount of proanthocyanidin A2 equivalent to that present in 2% w/w of the complex of Example 1). After 8 week-treatment, during which cholesterol, LDL/VLDL, HDL and triglycerids levels were measured, the animals were killed.
The number, size and distribution of the atherosclerotic lesions on thoracic and abdominal aorta were evaluated. […]

Oc1cc(O)c2c(c1)O[C@@]1(c3ccc(O)c(O)c3)Oc3cc(O)c4c(c3C2[C@H]1O)OC(c1ccc(O)c(O)c1)[C@H](O)C4 (stereo partly shown) [proanthocyanidin A2]
area percent of the lesion: 30%
